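48-hour exposure; five concentrations; linearly interpolated endpoints. At the TGI there is no net growth.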
Tests used:
Assay in all cases: NCI tumour cell line growth inhibition, 48 h
[1] = system: HCT-15 colon
[2] = system: OVCAR-4 ovarian
[3] = system: SF-268 CNS
[4] = system: MDA-N
[5] = system: OVCAR-3 ovarian
[6] = system: NCI-H23 lung
[7] = system: NCI/ADR-RES ovarian
[8] = system: SNB-75 CNS
[9] = system: MOLT-4 leukemia
[10] = system: HOP-92 NSCLC
[11] = system: A549 NSCLC
[12] = system: BT-549 breast
[13] = system: IGROV1 ovarian
[14] = system: UACC-62 melanoma
[15] = system: LOX IMVI melanoma
[16] = system: TK-10 renal
[17] = system: HCT-116 colon
[18] = system: 786-0 renal
[19] = system: SK-MEL-2 melanoma
[20] = system: HS 578T breast
[21] = system: MDA-MB-435
[22] = system: SK-OV-3 ovarian
[23] = system: DU-145 prostate
[24] = system: SF-539 CNS
[25] = system: EKVX NSCLC
[26] = system: M14 melanoma
[27] = system: MCF7 breast
[28] = system: MALME-3M melanoma
[29] = system: NCI-H460 lung
[30] = system: SK-MEL-5 melanoma
[31] = system: SW-620 colon
[32] = system: NCI-H226 lung
[33] = system: NCI-H522 lung
[34] = system: RXF 393 renal
[35] = system: U251 CNS
[36] = system: HCC-2998 colon
[37] = system: UACC-257 melanoma
[38] = system: KM12 colon
[39] = system: CCRF-CEM leukemia
[40] = system: PC-3 prostate
[41] = system: SR leukemia
[42] = system: HT29 colon
[43] = system: K-562 leukemia
[44] = system: MDA-MB-231 breast
[45] = system: OVCAR-5 ovarian
[46] = system: COLO 205 colon
[47] = system: ACHN renal
[48] = system: A498 renal
[49] = system: T-47D breast
[50] = system: SN12C renal
[51] = system: OVCAR-8 ovarian
[52] = system: SF-295 CNS
[53] = system: SNB-19 CNS
[54] = system: HL-60(TB) leukemia
[55] = system: HOP-62 NSCLC
[56] = system: SK-MEL-28 melanoma
[57] = system: RPMI-8226 leukemia
[58] = system: CAKI-1 renal

`CC(C)(C)C1CCC2c3c([nH]c4ccccc34)C3C(=O)N(c4ccc([N+](=O)[O-])cc4)C(=O)C3C2C1` (centres undefined) showed a TGI [1] of over 100 µM, a TGI [2] of 71.9 µM and a TGI [3] of 34.8 µM. It also gave a TGI [4] of over 100 µM, a TGI [5] of 28.4 µM and a TGI [6] of 33.7 µM. The TGI [7] was 41 µM, the TGI [8] was 38.4 µM and the TGI [9] was 56.8 µM. It also gave a TGI [10] of 17.5 µM, a TGI [11] of 62.1 µM and a TGI [12] of 36.9 µM. For the same molecule, the TGI [13] was over 100 µM, the TGI [14] was 39 µM and the TGI [15] was 20.8 µM. For the same molecule, the TGI [16] was 78.2 µM, the TGI [17] was 22.6 µM and the TGI [18] was 18.9 µM. For the same molecule, the TGI [19] was 29.3 µM, the TGI [20] was 39.3 µM and the TGI [21] was over 100 µM. The TGI [22] was 73.9 µM, the TGI [23] was over 100 µM and the TGI [24] was 42.7 µM. It also gave a TGI [25] of over 100 µM, a TGI [26] of 86.2 µM and a TGI [27] of 17.9 µM. The TGI [28] was 43.7 µM, the TGI [29] was over 100 µM and the TGI [30] was 25.6 µM. The TGI [31] was over 100 µM, the TGI [32] was 29 µM and the TGI [33] was 40.8 µM. It also gave a TGI [34] of 23.6 µM, a TGI [35] of 38.5 µM and a TGI [36] of 27.4 µM. For the same molecule, the TGI [37] was over 100 µM, the TGI [38] was 35.7 µM and the TGI [39] was over 100 µM. The TGI [40] was over 100 µM, the TGI [41] was 19.7 µM and the TGI [42] was 19.2 µM. It also gave a TGI [43] of 55.3 µM, a TGI [44] of 48.4 µM and a TGI [45] of over 100 µM. For the same molecule, the TGI [46] was 21.1 µM, the TGI [47] was over 100 µM and the TGI [48] was 79.4 µM. The TGI [49] was over 100 µM, the TGI [50] was 20.8 µM and the TGI [51] was over 100 µM. It also gave a TGI [52] of 93.8 µM, a TGI [53] of 67.5 µM and a TGI [54] of 34.7 µM. It also gave a TGI [55] of 33.8 µM, a TGI [56] of over 100 µM and a TGI [57] of over 100 µM.

`COc1cc2c(cc1OC)C(=O)N(c1ccc(OCCN3CCCC3)cc1)C2` showed a TGI [1] of over 100 µM, a TGI [2] of over 100 µM and a TGI [3] of over 100 µM. For the same molecule, the TGI [4] was over 100 µM, the TGI [5] was over 100 µM and the TGI [6] was over 100 µM. It also gave a TGI [7] of over 100 µM, a TGI [9] of over 100 µM and a TGI [10] of over 100 µM. It also gave a TGI [11] of over 100 µM, a TGI [12] of over 100 µM and a TGI [13] of over 100 µM. The TGI [14] was over 100 µM, the TGI [15] was over 100 µM and the TGI [16] was over 100 µM. It also gave a TGI [17] of over 100 µM, a TGI [18] of over 100 µM and a TGI [19] of over 100 µM. It also gave a TGI [20] of over 100 µM, a TGI [21] of over 100 µM and a TGI [22] of over 100 µM. For the same molecule, the TGI [23] was over 100 µM, the TGI [24] was over 100 µM and the TGI [25] was over 100 µM. For the same molecule, the TGI [26] was over 100 µM, the TGI [27] was over 100 µM and the TGI [28] was over 100 µM. The TGI [29] was over 100 µM, the TGI [30] was over 100 µM and the TGI [31] was over 100 µM. For the same molecule, the TGI [32] was over 100 µM, the TGI [33] was over 100 µM and the TGI [34] was over 100 µM. It also gave a TGI [35] of over 100 µM, a TGI [36] of over 100 µM and a TGI [37] of over 100 µM. For the same molecule, the TGI [38] was over 100 µM, the TGI [39] was over 100 µM and the TGI [40] was over 100 µM. For the same molecule, the TGI [41] was over 100 µM, the TGI [42] was over 100 µM and the TGI [43] was over 100 µM. The TGI [44] was over 100 µM, the TGI [45] was over 100 µM and the TGI [46] was over 100 µM. The TGI [47] was over 100 µM, the TGI [48] was over 100 µM and the TGI [49] was over 100 µM. For the same molecule, the TGI [50] was over 100 µM, the TGI [51] was over 100 µM and the TGI [52] was over 100 µM. For the same molecule, the TGI [58] was over 100 µM, the TGI [53] was over 100 µM and the TGI [54] was over 100 µM. For the same molecule, the TGI [55] was over 100 µM, the TGI [56] was over 100 µM and the TGI [57] was over 100 µM.
